From PubChem BioAssay AID743457 (The Scripps Research Institute Molecular Screening Center, 2014) come the findings set out here.

By IC50 is commonly meant the concentration that gives 50% inhibition.

In the test the target is Group 3 secretory phospholipase A2 (Homo sapiens) (UniProt Q9NZ20). Kind of test: human group III sPLA2 inhibitors, dose response, biochemical, QFRET, IC50 (AID 743457). To be noted: recombinant hGIII-sPLA2, BODIPY PC-A2 QFRET fluorescence.

Active and inactive are the calls of the source.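 Rule for the calls: active = IC50 at or below a set limit; inactive = IC50 above that limit.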 Where only a bound is given, the exact number is not on record here.

Group 3 secretory phospholipase A2 (Homo sapiens), sequence (Q9NZ20 whole entry, looked up): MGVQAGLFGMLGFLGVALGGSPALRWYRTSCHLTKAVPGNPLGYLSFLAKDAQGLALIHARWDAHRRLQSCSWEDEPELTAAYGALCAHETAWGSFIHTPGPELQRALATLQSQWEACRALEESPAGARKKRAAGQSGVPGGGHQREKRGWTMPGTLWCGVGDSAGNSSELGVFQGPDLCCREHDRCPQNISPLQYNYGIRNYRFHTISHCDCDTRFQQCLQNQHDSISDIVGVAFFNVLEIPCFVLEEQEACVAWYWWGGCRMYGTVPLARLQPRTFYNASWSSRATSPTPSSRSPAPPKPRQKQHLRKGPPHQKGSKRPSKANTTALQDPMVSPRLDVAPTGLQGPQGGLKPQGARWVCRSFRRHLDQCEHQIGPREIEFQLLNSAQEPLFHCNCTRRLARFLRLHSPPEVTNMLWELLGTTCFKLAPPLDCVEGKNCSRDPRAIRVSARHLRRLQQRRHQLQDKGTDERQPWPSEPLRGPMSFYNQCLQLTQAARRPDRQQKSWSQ

Regarding `Cc1ccc2sc(NNC(=O)c3ccc4c(c3)OCCO4)nc2c1C`, the IC50 result was “inactive”.
On to `CC(C)(C)c1csc(NNC(=O)c2ccc(Br)cc2)n1`, for which the IC50 was > 122 µM (inactive).
As for `O=C1c2ccccc2C(=O)c2c(NCCCN(CCO)CCO)cccc21`, the IC50 is > 122 µM (inactive).
With `CNC(=S)NN=C(C)c1ccc(OC)cc1O`, the IC50 was > 122 µM (inactive).
Then `CC(C)CC(=O)NC(=S)NNC(=O)c1ccc(NC(=O)C2CCCCC2)cc1`, with > 122 µM (inactive); and `O=C(N/N=C/c1cc(Cl)cc([N+](=O)[O-])c1O)C(O)(c1ccccc1)c1ccccc1`, with “inactive”.
For `COc1ccc2nc(Nc3nc4cc5c(cc4s3)OCO5)sc2c1` the value was “inactive”; for `C/C(=N\NC(=S)NCC(C)(C)C)c1cc(F)cc(F)c1O`, > 122 µM (inactive).
Take `COc1ccc(C(=O)NC(=S)NNC(=O)c2c(-c3ccccc3)noc2C)cc1OC`: the IC50 was > 122 µM (inactive).
`C=CCS/C(N)=N\N=C\c1cc(Br)cc([N+](=O)[O-])c1O`: the IC50 is > 40.6 µM (inactive).
As for `O=C(CCN1C(=O)/C(=C/c2ccccc2Cl)SC1=S)NNC(=O)c1ccccc1O`, the IC50 result was “inactive”.
Take `CNC(=S)N/N=C/c1cc(Br)cc(Br)c1O`: the IC50 is > 122 µM (inactive).
Then `O=[N+]([O-])c1ccc(O)c(N=Cc2sc3ccccc3c2O)c1`, with > 122 µM (inactive); and `Cc1ccccc1C(=O)NNC(=S)NC(=O)c1cccs1`, with > 40.6 µM (inactive); and `COc1ccc(C(=O)NNC(=S)NC(=O)c2cccs2)cc1`, with “inactive”.
As to `C/C(=N\NC(=O)c1nnn(-c2nonc2N)c1CN(C)c1ccccc1)c1ccccc1O`, the IC50 entry was “inactive”.
With `CCC(C)N1C(=O)/C(=C\c2cc3c4c(c2)CCCN4CCC3)C(=O)NC1=S` (stereo not drawn), the IC50 result was “inactive”.
On to `CCCC[n+]1c2ccccc2cc2ccccc21`, for which the IC50 result was “inactive”.
